# Tested on: SUM149PT spheroids with HUVEC/MSC, viability
# Test: Anticancer human tumor SUM149PT cell line growth inhibition [GQUAD];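 note: spheroids exposed to drugs for seven days before readout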;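 for viability, T/C: percent viability relative to DMSO vehicle control taken as 100%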
# Conditions: for IC50: curve of first compound; for viability, T/C: stronger effect = lower value
# From the text: DNA G-quadruplex Stabilizer Agents in Combinations in Complex Spheroids
# A high-throughput screen of multi-cell type tumor spheroids was designed to identify active combinations of DNA G-quadruplex stabilizer agents and targeted small molecules. Complex spheroids include a stromal component modeled by human endothelial cells (HUVEC) and fibroblasts modeled by human mesenchymal stem cells (MSCs). The concentration ranges selected for each drug and investigational agent were based upon clinically achievable concentrations if the clinical Cmax of the agent was known.
# Compounds. The drugs and investigational agents: pidnarulex (CX-5461; NSC782164), APTO-253 (NSC789042), BRACO-19 (NSC847499), peposertib (NSC802822), ceralasertib (NSC780249), elimusertib (NSC800525), camonsertib (NSC841442), AZD-1390 (NSC803789), olaparib (NSC753686), talazoparib (NSC767125), ART-558 (NSC835418), sotorasib (NSC818433), MRTX-1133 (NSC836407), SN-38 (NSC673596), topotecan (NSC609699), etoposide (NSC141540), doxorubicin (NSC123127), gemcitabine (NSC613327), 5-fluorouracil (NSC19893), paclitaxel (NSC125973), vemurafenib (NSC761431), panobinostat (NSC761190), R-306465 (JNJ-16241199; NSC773264), adavosertib (NSC754352), TP-3654 (NSC805149), carboplatin (NSC241240), KSQ-4279 (NSC840948), and staurosporine (NSC755774) were obtained from the National Cancer Institute (NCI) Developmental Therapeutics Program Chemical Repository (34). The FDA-approved anticancer drug set is available from the NCI Developmental Therapeutics Program. […] The stock solutions were prepared in dimethyl sulfoxide (DMSO, Sigma-Aldrich, St. Louis, MO, cat. D2650) at 800-fold the tested concentration and stored at -70 degrees C prior to their use. All drugs and investigational agents were tested over a range starting from a high concentration at or near the clinical Cmax and decreasing in half-log increments. If the clinical Cmax for an agent had not been determined, the highest concentration tested was 10 microM.
# 2.3 Cell Culture. All cells were maintained in an incubator at 37 degrees C and 5% CO2 with 95% humidity. The PDC lines were cultured according to standard operating procedures established by the NCI PDMR. All PDCs were thawed and cultured in Matrigel-coated flasks prepared with a working solution of 1X Ham's F-12 nutrient mix, without supplementation (Invitrogen, cat. 11765054), 100 U/mL penicillin-streptomycin (Invitrogen, cat. 15140122), and 2.5% Matrigel (Corning Inc., cat. 354248) for the first three passages. The 857933-349-R-J2-PDC line was cultured in 6C/Colon 1B media, which includes advanced DMEM/F-12 (Thermo Fisher Scientific, cat. 12634028), 10 mM HEPES (Thermo Fisher Scientific, cat. 15630080), 1X GlutaMAX supplement (Thermo Fisher Scientific, cat. 35050061), 0.1 mg/mL primocin (InvivoGen, cat. ant-pm-2), 10% defined fetal bovine serum, heat inactivated (HyClone Laboratories Inc., cat. SH30070.03HI), 50% L-WRN conditioned media (ATCC, cat. CRL-3276), 1.25 mM N-Acetyl-L-cysteine (Sigma-Aldrich, cat. A9165), 10 mM nicotinamide (Sigma-Aldrich, cat. N0636), 1X B-27 supplement (Thermo Fisher Scientific, cat. 17504044), 1X N-2 supplement (Thermo Fisher Scientific, cat. 17502048), 10 microM Y-27632 dihydrochloride (Tocris Bioscience, cat. 1254), and 50 ng/mL human EGF recombinant protein (Thermo Fisher Scientific, cat. PHG0311). The 485176-168-R4-J1-PDC line was cultured in Panc media, which includes all 6C/Colon 1B media components plus 100 ng/mL human FGF-10 (Thermo Fisher Scientific, cat. 100-26), 500 nM SB-431542 (Selleckchem, cat. S1067), and gastrin (Tocris, cat. 3006).
# […]
# [1] = second compound 0.0316 µM, first compound 0.0316 µM
# [2] = second compound 0.0316 µM, first compound 0.1 µM
# [3] = second compound 0.0316 µM, first compound 0.316 µM
# [4] = second compound 0.0316 µM, first compound 1 µM
# [5] = second compound 0.0316 µM, first compound 3.16 µM
# [6] = second compound 0.0316 µM, first compound 10 µM
# [7] = second compound 0.1 µM, first compound 0.0316 µM
# [8] = second compound 0.1 µM, first compound 0.1 µM
# [9] = second compound 0.1 µM, first compound 0.316 µM
# [10] = second compound 0.1 µM, first compound 1 µM
# [11] = second compound 0.1 µM, first compound 3.16 µM
# [12] = second compound 0.1 µM, first compound 10 µM
# [13] = second compound 0.316 µM, first compound 0.0316 µM
# [14] = second compound 0.316 µM, first compound 0.1 µM
# [15] = second compound 0.316 µM, first compound 0.316 µM
# [16] = second compound 0.316 µM, first compound 1 µM
# [17] = second compound 0.316 µM, first compound 3.16 µM
# [18] = second compound 0.316 µM, first compound 10 µM
# [19] = second compound 1 µM, first compound 0.0316 µM
# [20] = second compound 1 µM, first compound 0.1 µM
# [21] = second compound 1 µM, first compound 0.316 µM
# [22] = second compound 1 µM, first compound 1 µM
# [23] = second compound 1 µM, first compound 3.16 µM
# [24] = second compound 1 µM, first compound 10 µM
# [25] = second compound 3.16 µM, first compound 0.0316 µM
# [26] = second compound 3.16 µM, first compound 0.1 µM
# [27] = second compound 3.16 µM, first compound 0.316 µM
# [28] = second compound 3.16 µM, first compound 1 µM
# [29] = second compound 3.16 µM, first compound 3.16 µM
# [30] = second compound 3.16 µM, first compound 10 µM
# [31] = second compound 10 µM, first compound 0.0316 µM
# [32] = second compound 10 µM, first compound 0.1 µM
# [33] = second compound 10 µM, first compound 0.316 µM
# [34] = second compound 10 µM, first compound 1 µM
# [35] = second compound 10 µM, first compound 3.16 µM
# [36] = second compound 10 µM, first compound 10 µM
smiles,measurement,setting,value
CC(C)n1c(=O)n(C)c2cnc3cc(F)c(-c4ccc(OCCCN5CCCCC5)nc4)cc3c21 + CN(C)c1ccc(Nc2c3ccc(NC(=O)CCN4CCCC4)cc3nc3cc(NC(=O)CCN4CCCC4)ccc23)cc1,IC50,second compound 0.0316 µM,> 10 µM
same,IC50,second compound 0.1 µM,> 10 µM
same,IC50,second compound 0.316 µM,> 10 µM
same,IC50,second compound 1 µM,> 10 µM
same,IC50,second compound 3.16 µM,8.83 µM
same,IC50,second compound 10 µM,1.18 µM
same,"viability, T/C",[1],101%
same,"viability, T/C",[2],88.5%
same,"viability, T/C",[3],95%
same,"viability, T/C",[4],99.9%
same,"viability, T/C",[5],95.8%
same,"viability, T/C",[6],68.2%
same,"viability, T/C",[7],98.6%
same,"viability, T/C",[8],90.2%
same,"viability, T/C",[9],96.3%
same,"viability, T/C",[10],95.7%
same,"viability, T/C",[11],96.5%
same,"viability, T/C",[12],64.2%
same,"viability, T/C",[13],94%
same,"viability, T/C",[14],79.4%
same,"viability, T/C",[15],86.6%
same,"viability, T/C",[16],95.8%
same,"viability, T/C",[17],93%
same,"viability, T/C",[18],61.5%
same,"viability, T/C",[19],74.8%
same,"viability, T/C",[20],83.4%
same,"viability, T/C",[21],87.4%
same,"viability, T/C",[22],89.7%
same,"viability, T/C",[23],81.2%
same,"viability, T/C",[24],57%
same,"viability, T/C",[25],84.7%
same,"viability, T/C",[26],80.9%
same,"viability, T/C",[27],73%
same,"viability, T/C",[28],72.2%
same,"viability, T/C",[29],70.7%
same,"viability, T/C",[30],46.6%
same,"viability, T/C",[31],75.3%
same,"viability, T/C",[32],71.6%
same,"viability, T/C",[33],61.9%
same,"viability, T/C",[34],52.1%
same,"viability, T/C",[35],38.8%
same,"viability, T/C",[36],24.8%
CC1COCCN1c1cc(-c2ccnn2C)c2ccnc(-c3ccn[nH]3)c2n1 (centres undefined) + CN(C)c1ccc(Nc2c3ccc(NC(=O)CCN4CCCC4)cc3nc3cc(NC(=O)CCN4CCCC4)ccc23)cc1,IC50,second compound 0.0316 µM,0.0933 µM
same,IC50,second compound 0.1 µM,0.0927 µM
same,IC50,second compound 0.316 µM,0.0913 µM
same,IC50,second compound 1 µM,0.0897 µM
same,IC50,second compound 3.16 µM,0.0884 µM
same,IC50,second compound 10 µM,0.0657 µM
same,"viability, T/C",[1],96.3%
same,"viability, T/C",[2],46.9%
same,"viability, T/C",[3],29.1%
same,"viability, T/C",[4],23.2%
same,"viability, T/C",[5],38.2%
same,"viability, T/C",[6],28%
same,"viability, T/C",[7],87.8%
same,"viability, T/C",[8],47.3%
same,"viability, T/C",[9],29.6%
same,"viability, T/C",[10],29.4%
same,"viability, T/C",[11],30%
same,"viability, T/C",[12],36.1%
same,"viability, T/C",[13],87.5%
same,"viability, T/C",[14],46.8%
same,"viability, T/C",[15],26%
same,"viability, T/C",[16],26.5%
same,"viability, T/C",[17],28.1%
same,"viability, T/C",[18],29.2%
same,"viability, T/C",[19],82.6%
same,"viability, T/C",[20],46.6%
same,"viability, T/C",[21],26.4%
same,"viability, T/C",[22],23.7%
same,"viability, T/C",[23],26.8%
same,"viability, T/C",[24],29.4%
same,"viability, T/C",[25],79%
same,"viability, T/C",[26],46.5%
same,"viability, T/C",[27],20.7%
same,"viability, T/C",[28],23.5%
same,"viability, T/C",[29],25.6%
same,"viability, T/C",[30],24.2%
same,"viability, T/C",[31],69.9%
same,"viability, T/C",[32],38%
same,"viability, T/C",[33],28.9%
same,"viability, T/C",[34],24.9%
same,"viability, T/C",[35],25.4%
same,"viability, T/C",[36],21.9%
